This is an account of results in patent publication US20160176961A1, “THROMBOPOIETIN RECEPTOR LIGANDS FOR NEUROPROTECTION” (MCW Research Foundation, Inc., priority 2011, published 2016).

The conditions of series [1]: compared with Tpo itself; literature (Blood 85:981; J interferon Cyto Res); cited from earlier work.
Another series relates to heart. To be noted: earlier work of the inventor, U.S. Pat. No. 7,879,318; cited from earlier work.
The test system of another series is Male Sprague Dawley rats. In words: left middle cerebral artery occlusion followed by reperfusion (focal stroke). The series is classed as in vivo, rat. On the procedure: Male Sprague Dawley rats, 10 weeks of age (n=6/group) undergo 2-3 hours of left middle cerebral artery occlusion followed by 20-48 hours of reperfusion. Vehicle or thrombopoietin (0.03 to 1.00 μg/kg) is administered intravenously immediately after reperfusion. Brain infarct and swelling, neurologic deficits, matrix metalloproteinase-9 (MMP-9), tissue inhibitor of metalloproteinase-1 (TIMP-1), thrombopoietin and c-Mpl (thrombopoietin receptor) mRNA and protein, MMP-9 enzyme activity and protein expression, and the integrity of the blood-brain barrier are measured. Reperfusion of the left middle cerebral artery occlusion is expected to produce a large infarct and swelling after stroke.
Thrombopoietin is administered intravenously over the range 0.001-10 μg/kg. […] Stroke-induced increases in cortical MMP-9 mRNA, enzyme activity and protein expression, TIMP-1 mRNA, and Evans blue extravasation would be reduced by administration of thrombopoietin.

Where [2] appears, read: rat MCA occlusion/reperfusion, i.v. thrombopoietin.

Entries after “also recorded” stand apart in the source; their conditions may differ.

Turning to romiplostim, in series [1], the “crossing of the blood brain barrier relative to Tpo” value is recorded as “cross the blood brain barrier more effectively than does Tpo itself”.

Regarding Thrombopoietin, the “protection of the heart against deleterious effects of ischemia/reperfusion” value with heart was “protects the heart against various deleterious effects of ischemia/reperfusion”. The “most effective thrombopoietin dose” value in the series on Male Sprague Dawley rats (i.v., tested over the range 0.001-10 μg/kg, immediately or 2 hours after reperfusion) was in the range of 0.05 to 1.0 µg/kg. Further, in the series on Male Sprague Dawley rats (setting [2]), the “stroke-induced increase in Evans blue extravasation (blood-brain barrier integrity)” value was “reduced”; the “stroke-induced increase in TIMP-1 mRNA” value is “reduced”; the “stroke-induced increases in cortical MMP-9 mRNA, enzyme activity and protein expression” value is “reduced”. In addition, the “neurologic deficits after stroke” value in the series on Male Sprague Dawley rats (rat MCA occlusion/reperfusion, i.v. immediately or 2 hours after reperfusion, vs untreated controls) is “ameliorate”. Moreover, the “infarct size and swelling” value in the series on Male Sprague Dawley rats (rat, 2-3 h MCA occlusion, 20-48 h reperfusion, thrombopoietin i.v. immediately or 2 hours after reperfusion, vs untreated controls) is on record as “significantly reduces these indices of injury to the brain in a dose-dependent manner; also recorded: significantly reduce”.

As for `CC1=NN(c2ccc(C)c(C)c2)C(=O)/C1=N\Nc1cccc(-c2cccc(C(=O)O)c2)c1O` [eltrombopag], the “crossing of the blood brain barrier relative to Tpo” value in series [1] is recorded as “cross the blood brain barrier more effectively than does Tpo itself”.
